{
  "source": "patent US20040019013A1",
  "about": "“Formulation for the parenteral application of a sodium channel blocker” (Boehringer Ingelheim Pharma GmbH & Co. KG, Ingelheim, …, priority 2002, published 2004)",
  "experiment": "Solubility experiments and 1H-NMR spectra: complexing with cyclodextrins",
  "format": "physicochemical",
  "conditions": "hydrochloride of BIII 890; γ-cyclodextrin, HPγCD, HPβCD and SBEβCD",
  "data": [
    {"compound": "C[C@@H](CN1CC[C@@]2(C)c3cccc(O)c3C[C@@H]1C2(C)C)OCc1ccccc1", "note": "[BIII 890, (−)-(1R,2″S)-2-(2″-benzyloxy)propyl-4′-hydroxy-5,9,9-trimethyl-6,7-benzomorphan]", "values": [
      {"measurement": "complexing of the active substance by cyclodextrins", "result": "complex"}
    ]}
  ]
}
